Data from patent US20110300628A1, “ENHANCEMENT OF EPIDERMAL CELL GROWTH BY NON-PROTEIN GROWTH FACTORS” (priority 2010, published 2011).

Experiments:
[1] = test system: normal human keratinocytes (NHK cells); assay: Clonal growth assay of normal human keratinocytes in serum-free chemically defined medium; type: cell-based; conditions: for clonal growth of NHK relative to control medium supplemented with IGF-1 and EGF: additive in combination with IGF-1 (5 ng/mL), no EGF, 10 days after plating, diBcAMP 0.1 mM, LiCl 10 mM, PGE1 10 μg/ml; for clonal growth of NHK relative to culture medium supplemented with EGF plus IGF-1: 10 days; for replacement of protein growth factor requirement for clonal growth of NHK: serum-free medium, 10 days clonal growth; for effect on clonal growth in high (3×) levels of the six key amino acids: 3× amino acids
Method: The methods for isolating and culturing primary and secondary-passaged normal human neonatal normal human keratinocyte (NHK cells) were those previously employed (Wille et al., 1984). For the purpose of the present invention, secondary serially-passaged cultures were plated at 500 cells/cm in a novel serum-free basal media previously disclosed (Wille J. J., U.S. Pat. No. 5,586,307). This basal nutrient defined culture medium was supplemented either singly with the following additives: diBCAMP (1×10−4 M), LiCl (10 mM), and PGE1 ([…]). All dishes were fixed ten days later, stained with crystal violet stain (0.2%) and photographed.

keratinocyte cells = conditions: low calcium (0.03 mM) or calcium-free, serum-free medium; cited from earlier work

**Q.** What does the source list for `CCCCC[C@H](O)/C=C/[C@H]1[C@H](O)CC(=O)[C@@H]1CCCCCCC(=O)O` [PGE1, Prostaglandin E1]?
**A.** clonal growth of NHK relative to control medium supplemented with IGF-1 and EGF [1]: significantly enhanced; clonal growth of NHK relative to culture medium supplemented with EGF plus IGF-1 ([1]; in combination with both EGF and IGF-1): significantly enhanced; clonal growth in elevated (3×) levels of the six key amino acids relative to lower (1×) levels ([1]; in the presence of insulin (5 μg/mL) and EGF (10 ng/mL)): significant enhancement; replacement of protein growth factor requirement for clonal growth of NHK [1]: can replace both EGF and IGF-1; clonal growth of NHK relative to culture medium supplemented with EGF plus IGF-1 ([1]; single addition to medium unsupplemented by any protein growth factors): significantly enhanced

**Q.** Which “multiplication of human keratinocyte cells” value ([1]; 10 mM, serum-free chemically defined medium) does the source give for `[Cl-].[Li+]` [Li+ ions, Lithium chloride] here?
**A.** stimulate

**Q.** What about the “effect on clonal growth in low (1×) levels of the six key amino acids” value ([1]; 1× amino acids, with protein growth factors) of the same compound?
**A.** growth-enhancing effects

**Q.** What about the “effect on clonal growth in high (3×) levels of the six key amino acids” value ([1]; with protein growth factors, listed as lithium ions) of the same compound?
**A.** lost

**Q.** What about the “effect on clonal growth in high (3×) levels of the six key amino acids” value ([1]; with protein growth factors, listed as lithium ions (Li+)) of the same compound?
**A.** no enhancement

**Q.** What about the “clonal growth of NHK relative to control medium supplemented with IGF-1 and EGF” value [1] of the same compound?
**A.** significantly enhances

**Q.** What about the “replacement of protein growth factor requirement for clonal growth of NHK” value (“replacement” for short) [1] of the same compound?
**A.** can replace EGF

**Q.** What about the “replacement” value ([1]; listed as Lithium ions) of the same compound?
**A.** completely replaced EGF

**Q.** With `[Sr+2]` [Strontium ions (Sr 2+)] as the compound, how does the “concentration of maximal enhancement of cell viability and increase in cell number” value (keratinocyte cells) read?
**A.** 1.0 to 2.0 mM

**Q.** Which “clonal growth of NHK relative to control medium supplemented with IGF-1 and EGF” value [1] does the source give for `CCCC(=O)Nc1ncnc2c1ncn2[C@@H]1O[C@@H]2COP(=O)(O)O[C@H]2[C@H]1OC(=O)CCC` [diBcAMP, dibutryl-3′-5′-adenosine monophosphate] here?
**A.** significantly enhanced

**Q.** What about the “clonal growth of NHK relative to control medium supplemented with IGF-1 and EGF” value ([1]; listed as diBCAMP) of the same compound?
**A.** does enhance

**Q.** What about the “replacement” value [1] of the same compound?
**A.** can replace EGF
